Measured values: US20220007644A1, “COMPOSITIONS COMPRISING PYRIDINE CARBOXYLATE HERBICIDES WITH PHOTOSYSTEM II AND OPTIONAL HPPD INHIBITOR HERBICIDES” (Corteva Agriscience LLC, priority 2018, published 2022)
Values joined by “and” are separate entries in the source; they are usually repeats but may differ in a detail not shown here. Equal values may be shown once.

Assays:
Assay in all cases: Greenhouse postemergence herbicidal effect (visual injury, 20-22 d)
Assay type in all cases: in vivo
[1] = tested on: LOLMU, Lolium multiflorum (Italian ryegrass); details: Compound A 10 g/ha, without cloquintocet-mexyl safener
[2] = tested on: ECHCG, Echinochloa crus-galli (barnyard grass); details: Compound A 10 g/ha, without cloquintocet-mexyl safener
[3] = tested on: CHEAL, Chenopodium album L. (common lambsquarters)
Method in brief: (§1)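 Plants at 2nd–3rd true leaf stage were sprayed postemergence with pyridine carboxylate herbicide (g ae/ha; emulsifiable concentrate with cloquintocet-mexyl safener) plus PS-II and optional HPPD herbicide (g ai/ha) in 1.25% v/v crop oil at 187 L/ha. Visual injury versus solvent-blank controls was scored 0–100% after 20-22 d.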

[4] = tested on: LEFCH, Leptochloa chinensis (Chinese sprangletop); details: Compound A 10 g/ha, without cloquintocet-mexyl safener
[5] = tested on: STEME, Stellaria media (chickweed); details: STEME, Compound A 10 g/ha
Method in brief: as §1

[6] = tested on: ALOMY, Alopecurus myosuroides (blackgrass)
[7] = tested on: ABUTH, Abutilon theophrasti (velvetleaf); details: for % visual injury, Obs: ABUTH, Compound A 10 g/ha
[8] = tested on: SINAR, Sinapis arvensis (wild mustard)
Method in brief: as §1

[9] = tested on: CIRAR, Cirsium arvense (Canada thistle); details: for % visual injury, Obs: CIRAR, Compound A 10 g/ha
[10] = tested on: RUMOB, Rumex obtusifolius (broad-leaf dock); details: Compound A 10 g/ha
[11] = without cloquintocet-mexyl safener

## N#CCOC(=O)c1nc(-c2ccc3cc[nH]c3c2F)c(F)c(N)c1Cl [Compound A, cyanomethyl 4-amino-3-chloro-5-fluoro-6-(7-fluoro-1H-indol-6-yl)pyridine-2-carboxylate]
[1]
  % visual injury, Obs: 0%
[2]
  % visual injury, Obs: 58%
[3]; 7.5 g ae/ha alone
  visual injury: 88% and 70% and 75%
[3]; 10 g ae/ha alone
  visual injury: 93% and 83% and 78% and 80%
[4]
  % visual injury, Obs: 0%
[5]
  % visual injury, Obs: 90%
[5]; [11]
  % visual injury, Obs: 88%
[6]; 7.5 g ae/ha alone
  visual injury: 0%
[6]; 10 g ae/ha alone
  visual injury: 0%
[6]; ALOMY, Compound A 10 g/ha, without cloquintocet-mexyl safener
  % visual injury, Obs: 0%
[7]; 7.5 g ae/ha alone
  visual injury: 68%
[7]; 10 g ae/ha alone
  visual injury: 80%
[7]
  % visual injury, Obs: 80%
[7]; [11]
  % visual injury, Obs: 75%
[8]; 7.5 g ae/ha alone
  visual injury: 88% and 85% and 83%
[8]; 10 g ae/ha alone
  visual injury: 90% and 92% and 88%
[9]; 10 g ae/ha alone
  visual injury: 40% and 60% and 30% and 55%
[9]
  % visual injury, Obs: 60%
[9]; [11]
  % visual injury, Obs: 28%
[10]
  % visual injury, Obs: 13%
[10]; [11]
  % visual injury, Obs: 35%
